In patent US20110230476A1, “PI3 KINASE INHIBITORS AND USES THEREOF” (AVILA THERAPEUTICS, INC., priority 2009, published 2011):

The compounds below were run against T1, PI3Kα (p110α/p85α) (Homo sapiens, UniProt P42336) (assay: HTRF assay, potency against active PI3Kα). Details: HTRF; [ATP]=50 μM, [di-C8-PIP2]=10 μM; 30 min pre-incubation; read-out: PI3Kα Inhibition.
T1 construct: purchased BPS Bioscience (San Diego, Calif.) or Millipore (Billerica, Mass.)
T1 sequence (P42336 whole entry): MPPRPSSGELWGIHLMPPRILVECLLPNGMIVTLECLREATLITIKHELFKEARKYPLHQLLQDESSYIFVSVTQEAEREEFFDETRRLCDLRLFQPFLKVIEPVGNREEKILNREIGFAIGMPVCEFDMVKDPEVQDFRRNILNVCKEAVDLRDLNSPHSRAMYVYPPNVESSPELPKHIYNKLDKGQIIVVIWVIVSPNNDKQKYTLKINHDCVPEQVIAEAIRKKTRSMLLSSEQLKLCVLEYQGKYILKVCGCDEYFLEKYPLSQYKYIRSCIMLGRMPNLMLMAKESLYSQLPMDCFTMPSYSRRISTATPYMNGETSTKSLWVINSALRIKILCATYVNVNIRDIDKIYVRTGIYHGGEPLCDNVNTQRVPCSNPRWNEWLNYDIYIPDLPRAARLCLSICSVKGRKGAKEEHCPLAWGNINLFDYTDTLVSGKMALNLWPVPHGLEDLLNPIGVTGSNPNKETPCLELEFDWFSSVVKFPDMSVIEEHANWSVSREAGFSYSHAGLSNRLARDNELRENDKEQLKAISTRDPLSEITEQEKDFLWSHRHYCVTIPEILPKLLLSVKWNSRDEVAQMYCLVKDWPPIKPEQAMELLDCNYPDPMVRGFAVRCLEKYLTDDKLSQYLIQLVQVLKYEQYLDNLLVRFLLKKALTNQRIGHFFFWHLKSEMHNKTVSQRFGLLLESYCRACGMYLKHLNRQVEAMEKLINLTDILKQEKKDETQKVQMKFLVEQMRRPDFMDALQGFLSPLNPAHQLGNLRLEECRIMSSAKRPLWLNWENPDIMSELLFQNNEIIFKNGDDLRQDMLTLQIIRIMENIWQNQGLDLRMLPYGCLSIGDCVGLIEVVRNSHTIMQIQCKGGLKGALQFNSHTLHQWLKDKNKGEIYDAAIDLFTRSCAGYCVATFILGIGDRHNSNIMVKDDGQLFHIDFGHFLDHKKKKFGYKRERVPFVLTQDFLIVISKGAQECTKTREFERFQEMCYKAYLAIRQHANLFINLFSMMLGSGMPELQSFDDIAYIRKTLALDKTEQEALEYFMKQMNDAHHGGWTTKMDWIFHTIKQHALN
T1 sequence (P27986 whole entry partner): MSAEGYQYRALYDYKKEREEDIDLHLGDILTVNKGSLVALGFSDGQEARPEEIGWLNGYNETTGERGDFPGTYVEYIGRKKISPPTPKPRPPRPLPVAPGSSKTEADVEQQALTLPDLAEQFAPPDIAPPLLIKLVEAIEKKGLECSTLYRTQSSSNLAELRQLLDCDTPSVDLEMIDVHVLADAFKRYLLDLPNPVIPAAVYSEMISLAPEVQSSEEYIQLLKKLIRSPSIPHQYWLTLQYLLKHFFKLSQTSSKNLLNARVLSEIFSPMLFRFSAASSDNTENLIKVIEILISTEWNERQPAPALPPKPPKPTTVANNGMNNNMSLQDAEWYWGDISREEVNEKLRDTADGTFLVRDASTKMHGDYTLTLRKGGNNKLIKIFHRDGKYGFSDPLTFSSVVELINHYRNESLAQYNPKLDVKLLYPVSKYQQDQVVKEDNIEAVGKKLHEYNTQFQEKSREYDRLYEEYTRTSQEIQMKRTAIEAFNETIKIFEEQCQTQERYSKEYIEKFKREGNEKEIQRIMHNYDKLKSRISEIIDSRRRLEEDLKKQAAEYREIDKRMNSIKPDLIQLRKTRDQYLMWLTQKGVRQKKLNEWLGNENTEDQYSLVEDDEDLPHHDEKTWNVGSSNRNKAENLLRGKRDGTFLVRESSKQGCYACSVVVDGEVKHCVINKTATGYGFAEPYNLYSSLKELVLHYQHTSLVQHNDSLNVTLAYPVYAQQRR
Assay type: biochemical
Experimental: Homogeneous Time Resolved Fluorescence (HTRF) Assay Protocol for Potency Assessment Against the Active Forms of PI3Kα, PI3Kβ, and PI3Kγ
The mechanics of the assay platform are best described by the vendor (Millipore, Billerica, Mass.) on their website at the following URL: www.millipore.com/coa/tech1/74jt4z.
Briefly, Stop solution (Stop A, #33-007 and Stop B, #33-009; 3:1 ratio) and Detection Mix (from DMC, #33-015 with DMA, #33-011 and DMB, #33-013; 18:1:1 ratio) were prepared as recommended by the manufacturer about 2 hrs prior to use. […] Lipid kinase reactions were started with the addition of 5 μL of ATP solution, mixed for 15 sec on a rotary plate shaker and incubated for 30-60 minutes at 25° C. Next, reactions were stopped with a 5 μL addition of Stop solution immediately followed by a 5 μL volume of Detection Mix. […] At the conclusion of each assay, the HTRF ratio from fluorescence emission values for each well was calculated and % Inhibition determined from averaged controls wells (+/−PI3K enzyme). % Inhibition values for each compound were then plotted against inhibitor concentration to estimate IC50 from log [Inhibitor] vs Response, Variable Slope model in GraphPad Prism from GraphPad Software (San Diego, Calif.).
With `C=CC(=O)NC1CCN(c2ccc(-c3cc4nc(-c5cccc(O)c5)nc(N5CCOCC5)c4s3)cc2)CC1` [II-a-81, N-(1-(4-(2-(3-hydroxyphenyl)-4-morpholinothieno[3,2-d]pyrimidin-6-yl)phenyl)piperidin-4-yl)acrylamide] the IC50 was 10 to 100 nM.
Compound `CC(C)=CC(=O)C(=O)N1CCC(C#Cc2cc(-c3cnc(N)nc3)nc(N3CCOCC3)c2)CC1` [XII-32, 1-(4-((2-(2-aminopyrimidin-5-yl)-6-morpholinopyridin-4-yl)ethynyl)piperidin-1-yl)-4-methylpent-3-ene-1,2-dione] has an IC50 of 100 to 1000 nM.
Work on `C/C=C/C(=O)CCC(=O)N1CCN(c2ccc(-c3ccnc4ccc(/C=C5\SC(=O)NC5=O)cc34)cc2)CC1` [V-15, (Z)-5-((4-(4-(4-((E)-4-oxohept-5-enoyl)piperazin-1-yl)phenyl)quinolin-6-yl)methylene)thiazolidine-2,4-dione] yielded an IC50 of 10 to 100 nM.
`CC(C)=CC(=O)CN1CCN(C2CCN(c3cc(-c4cnc(N)nc4)nc(N4CCOCC4)c3)CC2)CC1` [XII-34, 1-(4-(1-(2-(2-aminopyrimidin-5-yl)-6-morpholinopyridin-4-yl)piperidin-4-yl)piperazin-1-yl)-4-methylpent-3-en-2-one] was tested, and the IC50 was 100 to 1000 nM.
`CC(C)=CC(=O)c1ccc(CCNC(=O)c2cc(-c3cccc4[nH]ncc34)nc(N3CCOCC3)c2)cc1` [XII-12] was tested, and the IC50 was > 1000 nM.
In the case of `C=CC(=O)Nc1ccc(CCNC(=O)c2cc3nc(-c4cccc5[nH]ncc45)nc(N4CC5(COC5)C4)c3s2)cc1` [II-a-151, N-(4-acrylamidophenethyl)-2-(1H-indazol-4-yl)-4-(2-oxa-6-azaspiro[3.3]heptan-6-yl)thieno[3,2-d]pyrimidine-6-carboxamide], the IC50 is reported as > 1000 nM.
For `C=CC(=O)N1CCN(c2ccc(-c3cc4nc(-c5cccc6[nH]ncc56)nc(N5CCOCC5)c4s3)cc2)CC1` [II-a-78, 1-(4-(4-(2-(1H-indazol-4-yl)-4-morpholinothieno[3,2-d]pyrimidin-6-yl)phenyl)piperazin-1-yl)prop-2-en-1-one], the IC50 was 100 to 1000 nM.
With `CC(C)=CC(=O)c1ccc(CCNC(=O)c2cc(-c3cnc(N)cc3C(F)(F)F)nc(N3CCOCC3)c2)cc1` [XII-9, 6′-amino-N-(4-(3-methylbut-2-enoyl)phenethyl)-6-morpholino-4′-(trifluoromethyl)-2,3′-bipyridine-4-carboxamide] the IC50 was > 1000 nM.
`C=CC(=O)NCC(=O)N1CCc2cc(-c3cc4nc(-c5cccc(O)c5)nc(N5CCOCC5)c4s3)ccc2C1` [II-a-121, N-(2-(6-(2-(3-hydroxyphenyl)-4-morpholinothieno[3,2-d]pyrimidin-6-yl)-3,4-dihydroisoquinolin-2(1H)-yl)-2-oxoethyl)acrylamide] was tested, and the IC50 was 100 to 1000 nM.
With `CN(C)C/C=C/C(=O)NC1CCN(c2ccc(-c3cc4nc(-c5cccc(O)c5)nc(N5CCOCC5)c4s3)cc2)CC1` [II-a-150, (E)-4-(dimethylamino)-N-(1-(4-(2-(3-hydroxyphenyl)-4-morpholinothieno[3,2-d]pyrimidin-6-yl)phenyl)piperidin-4-yl)but-2-enamide] the IC50 was 10 to 100 nM.
For `C/C=C/C(=O)CCCC(=O)Nc1ccc2c(c1)N(c1nc3c(s1)C(=O)NC(C)(C)C3)CCO2` [VI-24, (E)-N-(4-(6,6-dimethyl-4-oxo-4,5,6,7-tetrahydrothiazolo[5,4-c]pyridin-2-yl)-3,4-dihydro-2H-benzo[b][1,4]oxazin-6-yl)-5-oxooct-6-enamide], the IC50 was > 1000 nM.
Work on `C=CC(=O)NC1CCN(c2ccc(-c3cc4nc(-c5cccc6[nH]ncc56)nc(N5CCOCC5)c4s3)cc2)CC1` [II-a-110, N-(1-(4-(2-(1H-indazol-4-yl)-4-morpholinothieno[3,2-d]pyrimidin-6-yl)phenyl)piperidin-4-yl)acrylamide] yielded an IC50 of 100 to 1000 nM.
`CCC(=O)NCc1cccc(-c2cc3nc(-c4cccc(O)c4)nc(N4CCOCC4)c3s2)c1` [II^R-a-64, N-(3-(2-(3-hydroxyphenyl)-4-morpholinothieno[3,2-d]pyrimidin-6-yl)benzyl)propionamide] gave an IC50 of 100 to 1000 nM.
In the case of `C=CC(=O)NOCC(=O)N1CCN(Cc2cc3nc(-c4cccc5[nH]ncc45)nc(N4CCOCC4)c3s2)CC1` [II-a-147, N-(2-(4-((2-(1H-indazol-4-yl)-4-morpholinothieno[3,2-d]pyrimidin-6-yl)methyl)piperazin-1-yl)-2-oxoethoxy)acrylamide], the IC50 is reported as 100 to 1000 nM.
`C=CC(=O)N1CCC2(CC1)CCN(C(=O)c1cc3nc(-c4cccc(O)c4)nc(N4CCOCC4)c3s1)CC2` [II-a-119, 1-(9-(2-(3-hydroxyphenyl)-4-morpholinothieno[3,2-d]pyrimidine-6-carbonyl)-3,9-diazaspiro[5.5]undecan-3-yl)prop-2-en-1-one] showed an IC50 of 100 to 1000 nM.
For `CC(C)=CC(=O)CCC(=O)N1CCN(Cc2cc3nc(-c4cnc(N)nc4)cc(N4CCOCC4)c3s2)CC1` [II-g-7, 1-(4-((5-(2-aminopyrimidin-5-yl)-7-morpholinothieno[3,2-b]pyridin-2-yl)methyl)piperazin-1-yl)-6-methylhept-5-ene-1,4-dione], the IC50 was 100 to 1000 nM.
In the case of `CCC(=O)NC1CCN(c2ccc(-c3cc4nc(-c5cccc(O)c5)nc(N5CCOCC5)c4s3)cc2)CC1` [II^R-a-81, N-(1-(4-(2-(3-hydroxyphenyl)-4-morpholinothieno[3,2-d]pyrimidin-6-yl)phenyl)piperidin-4-yl)propionamide], the IC50 is reported as 100 to 1000 nM.
In the case of `C=CC(=O)N1CCC(O)(C#Cc2cc3nc(-c4cccc(O)c4)nc(N4CCOCC4)c3s2)CC1` [II-a-69, 1-(4-hydroxy-4-((2-(3-hydroxyphenyl)-4-morpholinothieno[3,2-d]pyrimidin-6-yl)ethynyl)piperidin-1-yl)prop-2-en-1-one], the IC50 is reported as 10 to 100 nM.
`C=CC(=O)N[C@@H]1CCCC[C@H]1C(=O)N1CCN(Cc2cc3nc(-c4cccc5[nH]ncc45)nc(N4CCOCC4)c3s2)CC1` [II-a-97] was tested, and the IC50 was 100 to 1000 nM.
`C=CC(=O)NCc1ccc(OC)c(-n2c(CSc3ncnc4[nH]cnc34)nc3cccc(Cl)c3c2=O)c1` [I-5, N-(3-(2-((9H-purin-6-ylthio)methyl)-5-chloro-4-oxoquinazolin-3(4H)-yl)-4-methoxybenzyl)acrylamide] was tested, and the IC50 was > 1000 nM.
With `CC(C)=CC(=O)CCC(=O)N1CCN(c2ccc(-c3ccnc4ccc(/C=C5\SC(=O)NC5=O)cc34)cn2)CC1` [V-18, (Z)-5-((4-(6-(4-(6-methyl-4-oxohept-5-enoyl)piperazin-1-yl)pyridin-3-yl)quinolin-6-yl)methylene)thiazolidine-2,4-dione] the IC50 was < 10 nM.
`C=CC(=O)N1CCc2ccc(-c3cc4nc(-c5cccc(O)c5)nc(N5CCOCC5)c4s3)cc2C1` [II-a-106, 1-(7-(2-(3-hydroxyphenyl)-4-morpholinothieno[3,2-d]pyrimidin-6-yl)-3,4-dihydroisoquinolin-2(1H)-yl)prop-2-en-1-one] showed an IC50 of 10 to 100 nM.
Work on `Cn1ccnc1/C=C/C(=O)CCC(=O)N1CCN(Cc2cc3nc(-c4cccc5[nH]ncc45)nc(N4CCOCC4)c3s2)CC1` [II-a-129, (E)-1-(4-((2-(1H-indazol-4-yl)-4-morpholinothieno[3,2-d]pyrimidin-6-yl)methyl)piperazin-1-yl)-6-(1-methyl-1H-imidazol-2-yl)hex-5-ene-1,4-dione] yielded an IC50 of 100 to 1000 nM.
In the case of `CC(C)=CC(=O)C(=O)N1CCN(c2cc(C)c(-c3cc(-c4cnc(N)nc4)nc(N4CCOCC4)c3)cn2)CC1` [XII-26, 1-(4-(2′-(2-aminopyrimidin-5-yl)-4-methyl-6′-morpholino-3,4′-bipyridin-6-yl)piperazin-1-yl)-4-methylpent-3-ene-1,2-dione], the IC50 is reported as 10 to 100 nM.
With `C=CC(=O)N1CCC(N2CCN(C(=O)c3cc4nc(-c5cccc(O)c5)nc(N5CCOCC5)c4s3)CC2)CC1` [II-a-120, 1-(4-(4-(2-(3-hydroxyphenyl)-4-morpholinothieno[3,2-d]pyrimidine-6-carbonyl)piperazin-1-yl)piperidin-1-yl)prop-2-en-1-one] the IC50 was 100 to 1000 nM.
For `C=CC(=O)Nc1ccc(C(=O)N2CCN(c3cc(-c4cnc(N)nc4)nc(N4CCOCC4)c3)CC2)cc1` [XII-53, N-(4-(4-(2-(2-aminopyrimidin-5-yl)-6-morpholinopyridin-4-yl)piperazine-1-carbonyl)phenyl)acrylamide], the IC50 was 100 to 1000 nM.
With `C=CC(=O)NCC12CCC(c3cc4nc(-c5cccc6[nH]ncc56)nc(N5CCOCC5)c4s3)(CC1)OC2` [II-a-153, N-((1-(2-(1H-indazol-4-yl)-4-morpholinothieno[3,2-d]pyrimidin-6-yl)-2-oxabicyclo[2.2.2]octan-4-yl)methyl)acrylamide] the IC50 was 100 to 1000 nM.
`C=CC(=O)N1CCN(c2ccc(-c3ccnc4ccc(/C=C5\SC(=O)NC5=O)cc34)cc2)CC1` [V-11, (Z)-5-((4-(4-(4-acryloylpiperazin-1-yl)phenyl)quinolin-6-yl)methylene)thiazolidine-2,4-dione] gave an IC50 of 10 to 100 nM.
For `C=CC(=O)Nc1ccc(CCNC(=O)c2cc(-c3cnc(N)cc3C(F)(F)F)nc(N3CCOCC3)c2)cc1` [XII-11, N-(4-acrylamidophenethyl)-6′-amino-6-morpholino-4′-(trifluoromethyl)-2,3′-bipyridine-4-carboxamide], the IC50 was > 1000 nM.
Compound `C=CC(=O)N1CCN(c2ccc(-c3ccnc4ccc(/C=C5\SC(=O)NC5=O)cc34)cn2)CC1` [V-4, (Z)-5-((4-(6-(4-acryloylpiperazin-1-yl)pyridin-3-yl)quinolin-6-yl)methylene)thiazolidine-2,4-dione] has an IC50 of 10 to 100 nM.
